Test results: US7625841B2, “Substituted thiene-3-ylsulphonylamino(thio)carbonyltriazolin(ethi)ones” (Bayer CropScience AG, priority 2001, dated 2009)
Counter-ions that a name gives are not always drawn.

Key:
Avena fatua [1] = experiment: Post-emergence test/greenhouse; format: in vivo; details: greenhouse, application rate 15 gai/ha, rated after three weeks, 0%=no effect, 100%=total destruction
Description: (§1) • Solvent: 5 parts by weight of acetone • Emulsifier: 1 part by weight of alkylaryl polyglycol ether
(§2) To produce a suitable preparation of active compound, 1 part by weight of active compound is mixed with the stated amount of solvent, the stated amount of emulsifier is added and the concentrate is diluted with water to the desired concentration.
(§3) Test plants of a height of 5-15 cm are sprayed with the preparation of active compound such that the particular amounts of active compound desired are applied per unit area. The concentration of the spray liquor is chosen such that the particular amounts of active compound desired are applied in 1000 l of water/ha.
(§4) After three weeks, the degree of damage to the plants is rated in % damage in comparison to the development of the untreated control.
(§5) The figures denote: • 0%=no effect (like untreated control) • 100%=total destruction

Bromus [2] = experiment: Post-emergence test/greenhouse; format: in vivo; details: greenhouse, application rate 15 gai/ha, rated after three weeks, 0%=no effect, 100%=total destruction
Description: as §1, §2, §3, §4, §5

Datura = experiment: Post-emergence test/greenhouse; format: in vivo; details: greenhouse, application rate 15 gai/ha, rated after three weeks, 0%=no effect, 100%=total destruction
Description: as §1, §2, §3, §4, §5

Echinochloa = experiment: Post-emergence test/greenhouse; format: in vivo; details: greenhouse, application rate 15 gai/ha, rated after three weeks, 0%=no effect, 100%=total destruction
Description: as §1, §2, §3, §4, §5

Lolium [3] = experiment: Post-emergence test/greenhouse; format: in vivo; details: greenhouse, application rate 15 gai/ha, rated after three weeks, 0%=no effect, 100%=total destruction
Description: as §1, §2, §3, §4, §5

Viola = experiment: Post-emergence test/greenhouse; format: in vivo; details: greenhouse, application rate 15 gai/ha, rated after three weeks, 0%=no effect, 100%=total destruction
Description: as §1, §2, §3, §4, §5

Xanthium [4] = experiment: Post-emergence test/greenhouse; format: in vivo; details: greenhouse, application rate 15 gai/ha, rated after three weeks, 0%=no effect, 100%=total destruction
Description: as §1, §2, §3, §4, §5

wheat [5] = experiment: Post-emergence test/greenhouse; format: in vivo; details: greenhouse, application rate 15 gai/ha, rated after three weeks, 0%=no effect, 100%=total destruction
Description: as §1, §2, §3, §4, §5

Amaranthus = experiment: Pre-emergence test/greenhouse; format: in vivo; details: greenhouse, application rate 15 gai/ha, rated after three weeks, 0%=no effect, 100%=total destruction
Summary of the method: (§6)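 Pre-emergence soil spray 24 h after sowing; spray volume 1000 L water/ha; acetone/alkylaryl polyglycol ether formulation diluted in water. Scored at 3 weeks as % damage vs untreated (0–100%).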

Bromus [6] = experiment: Pre-emergence test/greenhouse; format: in vivo; details: greenhouse, application rate 15 gai/ha, rated after three weeks, 0%=no effect, 100%=total destruction
Summary of the method: as §6

Lolium [7] = experiment: Pre-emergence test/greenhouse; format: in vivo; details: greenhouse, application rate 15 gai/ha, rated after three weeks, 0%=no effect, 100%=total destruction
Summary of the method: as §6

Matricaria = experiment: Pre-emergence test/greenhouse; format: in vivo; details: greenhouse, application rate 15 gai/ha, rated after three weeks, 0%=no effect, 100%=total destruction
Summary of the method: as §6

Solanum = experiment: Pre-emergence test/greenhouse; format: in vivo; details: greenhouse, application rate 15 gai/ha, rated after three weeks, 0%=no effect, 100%=total destruction
Summary of the method: as §6

Stellaria = experiment: Pre-emergence test/greenhouse; format: in vivo; details: greenhouse, application rate 15 gai/ha, rated after three weeks, 0%=no effect, 100%=total destruction
Summary of the method: as §6

Xanthium [8] = experiment: Pre-emergence test/greenhouse; format: in vivo; details: greenhouse, application rate 15 gai/ha, rated after three weeks, 0%=no effect, 100%=total destruction
Summary of the method: as §6

maize [9] = experiment: Pre-emergence test/greenhouse; format: in vivo; details: greenhouse, application rate 15 gai/ha, rated after three weeks, 0%=no effect, 100%=total destruction
Summary of the method: as §6

wheat [10] = experiment: Pre-emergence test/greenhouse; format: in vivo; details: greenhouse, application rate 15 gai/ha, rated after three weeks, 0%=no effect, 100%=total destruction
Summary of the method: as §6

weeds [11] = experiment: Post-emergence test, summary for weeds; format: in vivo
Description: as §1, §2, §3, §4, §5

[12] = system: crop plants such as, for example, maize, oilseed rape and wheat; experiment: Post-emergence test, summary for crop plants; format: in vivo
Description: as §1, §2, §3, §4, §5

weeds [13] = experiment: Pre-emergence test, summary for weeds; format: in vivo
Description: as §1
(§7) To produce a suitable preparation of active compound, 1 part by weight of active compound is mixed with the stated amount of solvent, the stated amount of emulsifier is added and the concetrate is diluted with water to the desired concentration.
(§8) Seeds of the test plants are sown in normal soil. After 24 hours, the soil is sprayed with the preparation of active compound such that the particular amount of active compound desired is applied per unit area. The concentration of active compound in the spray liquor is chosen such that the particular amount of active compound desired is applied in 1000 litres of water per hectare.
(§9) After three weeks, the degree of damage to the plants is rated in % damage in comparison to the development of the untreated control. The figures denote: • 0%=no effect (like untreated control) • 100%=total destruction

[14] = system: crop plants, such as, for example, maize, soyabean and wheat; experiment: Pre-emergence test, summary for crop plants; format: in vivo
Description: as §1, §7, §8, §9

Alopecurus [15] = experiment: Post-emergence test/greenhouse; format: in vivo; details: greenhouse, application rate 15 gai/ha, rated after three weeks, 0%=no effect, 100%=total destruction
Description: as §1, §2, §3, §4, §5

Polygonum [16] = experiment: Post-emergence test/greenhouse; format: in vivo; details: greenhouse, application rate 15 gai/ha, rated after three weeks, 0%=no effect, 100%=total destruction
Description: as §1, §2, §3, §4, §5

maize [17] = experiment: Post-emergence test/greenhouse; format: in vivo; details: greenhouse, application rate 15 gai/ha, rated after three weeks, 0%=no effect, 100%=total destruction
Description: as §1, §2, §3, §4, §5

Alopecurus [18] = experiment: Pre-emergence test/greenhouse; format: in vivo; details: greenhouse, application rate 15 gai/ha, rated after three weeks, 0%=no effect, 100%=total destruction
Summary of the method: as §6

Polygonum [19] = experiment: Pre-emergence test/greenhouse; format: in vivo; details: greenhouse, application rate 15 gai/ha, rated after three weeks, 0%=no effect, 100%=total destruction
Summary of the method: as §6

Digitaria [20] = experiment: Post-emergence test/greenhouse; format: in vivo; details: greenhouse, application rate 15 gai/ha, rated after three weeks, 0%=no effect, 100%=total destruction
Description: as §1, §2, §3, §4, §5

Setaria [21] = experiment: Post-emergence test/greenhouse; format: in vivo; details: greenhouse, application rate 15 gai/ha, rated after three weeks, 0%=no effect, 100%=total destruction
Description: as §1, §2, §3, §4, §5

Avena fatua [22] = experiment: Pre-emergence test/greenhouse; format: in vivo; details: greenhouse, application rate 15 gai/ha, rated after three weeks, 0%=no effect, 100%=total destruction
Summary of the method: as §6

Chenopodium = experiment: Pre-emergence test/greenhouse; format: in vivo; details: greenhouse, application rate 15 gai/ha, rated after three weeks, 0%=no effect, 100%=total destruction
Summary of the method: as §6

Digitaria [23] = experiment: Pre-emergence test/greenhouse; format: in vivo; details: greenhouse, application rate 15 gai/ha, rated after three weeks, 0%=no effect, 100%=total destruction
Summary of the method: as §6

Galium = experiment: Pre-emergence test/greenhouse; format: in vivo; details: greenhouse, application rate 15 gai/ha, rated after three weeks, 0%=no effect, 100%=total destruction
Summary of the method: as §6

Setaria [24] = experiment: Pre-emergence test/greenhouse; format: in vivo; details: greenhouse, application rate 15 gai/ha, rated after three weeks, 0%=no effect, 100%=total destruction
Summary of the method: as §6

soybeans = experiment: Pre-emergence test/greenhouse; format: in vivo; details: greenhouse, application rate 15 gai/ha, rated after three weeks, 0%=no effect, 100%=total destruction
Summary of the method: as §6

SMILES | degree of damage to the plants, Avena fatua (Avena fatua [1]) | degree of damage to the plants, Bromus (Bromus [2]) | degree of damage to the plants, Datura (Datura) | degree of damage to the plants, Echinochloa (Echinochloa) | degree of damage to the plants, Lolium (Lolium [3]) | degree of damage to the plants, Xanthium (Xanthium [4]) | degree of damage to the plants, wheat (wheat [5]) | degree of damage to the plants, Amaranthus (Amaranthus) | degree of damage to the plants, Bromus (Bromus [6]) | degree of damage to the plants, Lolium (Lolium [7]) | degree of damage to the plants, Solanum (Solanum) | degree of damage to the plants, Stellaria (Stellaria) | degree of damage to the plants, Xanthium (Xanthium [8]) | degree of damage to the plants, maize (maize [9]) | degree of damage to the plants, wheat (wheat [10]) | activity against weeds compared with the known compounds (A) and (B) (weeds [11]) | compatibility with crop plants compared with the known compounds (A) and (B) [12] | activity against weeds compared with the known compounds (A) to (G) (weeds [13]) | tolerance by crop plants [14] | degree of damage to the plants, Alopecurus (Alopecurus [15]) | other results
CCOC(=O)c1csc(C)c1S(=O)(=O)NC(=O)n1nc(OC)n(C2CC2)c1=O [Example 56] | 90% | 90% | 90% | 95% | 90% | 95% | 0% | 100% | 95% | 95% | 100% | 100% | 95% | 0% | 0% | considerably stronger activity against weeds | substantially better compatibility with crop plants | considerably stronger activity against weeds | tolerated well by crop plants | – | degree of damage to the plants, Viola (Viola): 95%; degree of damage to the plants, Matricaria (Matricaria): 100%
CCOC(=O)c1csc(C)c1S(=O)(=O)NC(=O)n1nc(OC)n(C)c1=O (as salt: sodium) [Example 1, ethyl 4-[[[(3-methoxy-4-methyl-5-oxo-1H-1,2,4-triazol-1-yl)carbonyl]amino]sulfonyl]-5-methyl-3-thiophenecarboxylate] | – | – | – | – | – | – | – | – | – | – | – | – | – | – | – | – | – | – | – | – | melting point: 220 °C
CCOC(=O)c1csc(C)c1S(=O)(=O)NC(=O)n1nc(OCC)n(C)c1=O [Example 55] | – | 90% | 95% | 90% | 90% | 95% | – | – | 95% | 90% | 100% | 100% | 95% | 0% | 0% | considerably stronger activity against weeds | substantially better compatibility with crop plants | considerably stronger activity against weeds | tolerated well by crop plants | 90% | degree of damage to the plants, Polygonum (Polygonum [16]): 90%; degree of damage to the plants, maize (maize [17]): 0%; degree of damage to the plants, Alopecurus (Alopecurus [18]): 95%; degree of damage to the plants, Polygonum (Polygonum [19]): 95%
CCCOc1nn(C(=O)NS(=O)(=O)c2c(C(=O)OC)csc2C)c(=O)n1C1CC1 [(B), methyl 4-[[[(4-cyclopropyl-4,5-dihydro-5-oxo-3-n-propoxy-1H-1,2,4-triazol-1-yl)-carbonyl]amino]sulfonyl]-5-methyl-3-thiophenecarboxylate, reference compound] | 50% | 50% | 80% | – | 60% | 50% | 30% | 80% | 40% | – | 80% | – | – | – | – | – | – | – | – | 0% | degree of damage to the plants, Digitaria (Digitaria [20]): 20%; degree of damage to the plants, Polygonum (Polygonum [16]): 70%; degree of damage to the plants, Setaria (Setaria [21]): 60%; degree of damage to the plants, maize (maize [17]): 90%; degree of damage to the plants, Alopecurus (Alopecurus [18]): 20%; degree of damage to the plants, Avena fatua (Avena fatua [22]): 10%; degree of damage to the plants, Chenopodium (Chenopodium): 40%; degree of damage to the plants, Digitaria (Digitaria [23]): 0%; degree of damage to the plants, Galium (Galium): 20%; pest or weed control at 15 g/ha (Lolium [7]; Lolium, 504 h, read-out: degree of damage to the plants, Lolium): 20%; pest or weed control at 15 g/ha (Matricaria; Matricaria, 504 h, read-out: degree of damage to the plants, Matricaria): 40%; degree of damage to the plants, Polygonum (Polygonum [19]): 50%; degree of damage to the plants, Setaria (Setaria [24]): 40%; pest or weed control at 15 g/ha (Stellaria; Stellaria, 504 h, read-out: degree of damage to the plants, Stellaria): 60%; pest or weed control at 15 g/ha (Xanthium [8]; Xanthium, 504 h, read-out: degree of damage to the plants, Xanthium): 0%; plant injury at 15 g/ha (maize [9]; Zea mays, 504 h, read-out: degree of damage to the plants, maize): 0%; degree of damage to the plants, soybeans (soybeans): 0%; plant injury at 15 g/ha (wheat [10]; Triticum aestivum, 504 h, read-out: degree of damage to the plants, wheat): 0%
